Data reported in US9963464B2, “Macrocyclic compounds” (Bayer Pharma Aktiengesellschaft, priority 2014, dated 2018).

Legend:
[1] = Caco-2 permeation assay; type: in vitro ADME; details: human, pH 7.2, Caco-2 monolayer, 2 μM test compound; for Papp A→B at 2 h, 2 μM: read-out: Papp A-B (Mari); for Papp B→A at 2 h, 2 μM: read-out: Papp B-A (Mari); for efflux ratio at 2 h, 2 μM: read-out: Efflux ratio (Papp B-A/Papp A-B)
Experimental: 5. Caco-2 Permeation Assay:
Caco-2 cells (purchased from DSMZ Braunschweig, Germany) were seeded at a density of 4.5×10^4 cells per well on 24 well insert plates, 0.4 μm pore size, and grown for 15 days in DMEM medium supplemented with 10% fetal bovine serum, 1% GlutaMAX (100×, GIBCO), 100 U/mL penicillin, 100 μg/mL streptomycin (GIBCO) and 1% non essential amino acids (100×). Cells were maintained at 37° C. in a humidified 5% CO2 atmosphere. Medium was changed every 2-3 day. Before running the permeation assay, the culture medium was replaced by a FCS-free hepes-carbonate transport buffer (pH 7.2). For assessment of monolayer integrity the transepithelial electrical resistance (TEER) was measured. Test compounds were predissolved in DMSO and added either to the apical or basolateral compartment in final concentration of 2 μM in transport buffer. Before and after 2 h incubation at 37° C. samples were taken from both compartments. Analysis of compound content was done after precipitation with methanol by LC/MS/MS analysis. Permeability (Papp) was calculated in the apical to basolateral (A→B) and basolateral to apical (B→A) directions. The apparent permeability was calculated using following equation: Papp=(Vr/Po)(1/S)(P2/t) Where Vr is the volume of medium in the receiver chamber, Po is the measured peak area or height of the test drug in the donor chamber at t=o, S the surface area of the monolayer, P2 is the measured peak area of the test drug in the acceptor chamber after 2 h of incubation, and t is the incubation time. The efflux ratio basolateral (B) to apical (A) was calculated by dividing the Papp B-A by the Papp A-B. In addition the compound recovery was calculated.

[2] = target: T1, human PTEFb (CDK9/Cyclin T1) (Homo sapiens, UniProt P50750); assay: Surface plasmon resonance PTEFb; type: binding; details: SPR; for koff: 25° C., below 5E-5 s^-1 not resolvable, read-out: Dissociation rate constant koff; for Target resident time: 1/koff
T1 construct: purchased ProQinase, Freiburg, Germany
T1 sequence (P50750 whole entry): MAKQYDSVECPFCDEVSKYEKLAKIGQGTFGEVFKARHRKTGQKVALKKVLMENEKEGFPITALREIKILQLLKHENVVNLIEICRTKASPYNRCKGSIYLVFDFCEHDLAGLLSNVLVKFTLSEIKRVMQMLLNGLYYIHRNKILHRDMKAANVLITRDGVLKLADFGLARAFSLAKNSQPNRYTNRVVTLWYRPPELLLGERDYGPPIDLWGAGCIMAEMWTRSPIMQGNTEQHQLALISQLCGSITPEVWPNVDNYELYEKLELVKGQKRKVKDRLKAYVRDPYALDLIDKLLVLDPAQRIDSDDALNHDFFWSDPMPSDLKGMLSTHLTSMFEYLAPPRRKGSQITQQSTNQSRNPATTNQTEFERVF
T1 sequence (O60563 whole entry partner): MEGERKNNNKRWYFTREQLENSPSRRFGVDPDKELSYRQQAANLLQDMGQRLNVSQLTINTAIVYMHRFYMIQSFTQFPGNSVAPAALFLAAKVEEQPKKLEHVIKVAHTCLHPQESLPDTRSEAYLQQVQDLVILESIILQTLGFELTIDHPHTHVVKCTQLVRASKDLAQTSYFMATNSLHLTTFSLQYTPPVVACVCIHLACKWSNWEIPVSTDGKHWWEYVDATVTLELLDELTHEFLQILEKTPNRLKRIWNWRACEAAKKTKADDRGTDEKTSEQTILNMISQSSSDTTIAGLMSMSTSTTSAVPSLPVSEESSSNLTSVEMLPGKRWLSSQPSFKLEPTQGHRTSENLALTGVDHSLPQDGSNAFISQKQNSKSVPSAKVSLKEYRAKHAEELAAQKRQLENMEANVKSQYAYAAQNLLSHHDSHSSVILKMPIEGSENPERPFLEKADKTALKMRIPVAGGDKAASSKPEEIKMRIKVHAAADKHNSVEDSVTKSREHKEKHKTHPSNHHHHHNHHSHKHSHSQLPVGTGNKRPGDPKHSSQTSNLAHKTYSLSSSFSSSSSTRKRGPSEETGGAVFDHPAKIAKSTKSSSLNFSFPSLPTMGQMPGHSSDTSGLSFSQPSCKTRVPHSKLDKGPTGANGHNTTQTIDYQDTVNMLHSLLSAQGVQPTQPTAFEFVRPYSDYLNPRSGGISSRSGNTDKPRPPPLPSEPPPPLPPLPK
Text: 8. Surface Plasmon Resonance PTEFb
The term “surface plasmon resonance”, as used herein, refers to an optical phenomenon that allows for the analysis of the reversible associations of biological molecules in real time within a biosensor matrix, for example using the Biacore® system (GE Healthcare Biosciences, Uppsala, Sweden). Biacore® uses the optical properties of surface plasmon resonance (SPR) to detect alterations in the refractive index of a buffer, which changes as molecules in solution interact with the target immobilized on the surface. In brief, proteins are covalently bound to the dextran matrix at a known concentration and a ligand for the protein is injected through the dextran matrix. Near infrared light, directed onto the opposite side of the sensor chip surface is reflected and also induces an evanescent wave in the gold film, which in turn, causes an intensity dip in the reflected light at a particular angle known as the resonance angle. If the refractive index of the sensor chip surface is altered (e.g. by compound binding to the bound protein) a shift occurs in the resonance angle. This angle shift can be measured.
The term “KD”, as used herein, is intended to refer to the equilibrium dissociation constant of a particular compound/target protein complex.
The term “koff”, as used herein, is intended to refer to the off-rate, i.e. the dissociation rate constant of a particular compound/target protein complex.
The term “target residence time”, as used herein, is intended to refer to the inverse of the rate of dissociation rate constant (1/koff) of a particular compound/target protein complex.
The ability of the compounds according to the invention to bind human PTEFb may be determined using surface plasmon resonance (SPR). KD values and koff values may be measured using a Biacore® T200 instrument (GE Healthcare, Uppsala, Sweden).
For SPR measurements, recombinant human PTEFb (CDK9/Cyclin T1 recombinant human active protein kinase purchased from ProQinase, Freiburg, Germany) is immobilized using standard amine coupling (Johnsson B et al, Anal Biochem. 1991 Nov. 1; 198(2):268-77). Briefly, carboxymethylated dextran biosensor chips (CM7, GE Healthcare) are activated with N-ethyl-N′-(3-dimethylaminopropyl)-carbodiimide hydrochloride (EDC) and N-hydroxysuccinimide (NHS) according to the supplier's instructions. Human PTEFb is diluted in 1×HBS-EP+(GE Healthcare) into 30 μg/ml and injected on the activated chip surface. Subsequently, a 1:1 solution of 1 M ethanolamine-HCl (GE Healthcare) and 1×HBS-EP is injected to block unreacted groups, resulting in approximately 4000 response units (RU) of immobilized protein. A reference surface is generated by treatment with NHS-EDC and ethanolamine-HCl. Compounds are dissolved in 100% dimethylsulfoxide (DMSO, Sigma-Aldrich, Germany) to a concentration of 10 mM and subsequently diluted in running buffer (1×HBS-EP+pH 7.4 [generated from HBS-EP+Buffer 10× (GE Healthcare): 0.1 M HEPES, 1.5 M NaCl, 30 mM EDTA and 0.5% v/v Surfactant P20], 1% v/v DMSO). For kinetic measurements, four-fold serial dilutions of compound (0.39 nM to 100 nM) are injected over immobilized protein. Binding kinetics is measured at 25° C. with a flow rate of 50 μl/min in running buffer. Compound concentrations are injected for 60 s followed by a dissociation time of 1800 s. The resulting sensorgrams are double-referenced against the reference surface as well as against blank injections.
The double-referenced sensorgrams are fit to a simple reversible Langmuir 1:1 reaction mechanism as implemented in the Biacore® T200 evaluation software 2.0 (GE Healthcare). In cases were full compound dissociation has not occurred at the end of the dissociation phase, the Rmax parameter (response at saturation) is fit as local variable. In all other cases, Rmax is fit as global variable.

| Structure (SMILES) | Papp A→B at 2 h, 2 μM [1] | Papp B→A at 2 h, 2 μM [1] | efflux ratio at 2 h, 2 μM [1] | koff [2] | Target resident time [2] |
| --- | --- | --- | --- | --- | --- |
| CS(=N)(=O)Cc1cc2cc(c1)OCCCCOc1cc(F)ccc1-c1nc(ncc1F)N2 (racemic) [Example 1, (rac)-16,20-Difluoro-9-[(S-methylsulfonimidoyl)methyl]-2,3,4,5-tetrahydro-12H-13,17-(azeno)-11,7-(metheno)-1,6,12,14-benzodioxadiazacyclononadecine] | 13.9 ×10⁻⁶ cm/s | 19.7 ×10⁻⁶ cm/s | 1.4 | < 5e-05 s⁻¹ | >333 min |
| CS(=N)(=O)Cc1cc2nc(c1)OCCCOc1cc(F)ccc1-c1cc(ncc1F)N2 (racemic) [Example 5, (rac)-15,19-Difluoro-8-[(S-methylsulfonimidoyl)methyl]-3,4-dihydro-2H,11H-10,6-(azeno)-12,16-(metheno)-1,5,11,13-benzodioxadiazacyclooctadecine] | 4.7 ×10⁻⁶ cm/s | 4.3 ×10⁻⁶ cm/s | 0.91 | 9.3e-05 s⁻¹ | 179.2 min |
| CS(=O)(Cc1cc2nc(c1)OCCCOc1cc(F)ccc1-c1cc(ncc1F)N2)=NC(=O)OCCN (racemic) [Example 25, (rac)-2-aminoethyl [{[15,19-difluoro-3,4-dihydro-2H,11H-10,6-(azeno)-12,16-(metheno)-1,5,11,13-benzodioxadiazacyclooctadecin-8-yl]methyl}(methyl)oxido-λ^6-sulfanylidene]carbamate] | 0.4 ×10⁻⁶ cm/s | 26.2 ×10⁻⁶ cm/s | 74.5 | – | – |
| CS(=O)(=O)Cc1cc2nc(c1)OCCCOc1cc(F)ccc1-c1cc(ncc1F)N2 [Example 8, 15,19-difluoro-8-[(methylsulfonyl)methyl]-3,4-dihydro-2H,11H-10,6-(azeno)-12,16-(metheno)-1,5,11,13-benzodioxadiazacyclooctadecine] | 6.7 ×10⁻⁶ cm/s | 5.5 ×10⁻⁶ cm/s | 0.8 | < 5e-05 s⁻¹ | >333 min |
| NCCS(=O)(=O)Cc1cc2nc(c1)OCCCOc1cc(F)ccc1-c1cc(ncc1F)N2 [Example 26, 2-({[15,19-difluoro-3,4-dihydro-2H,11H-10,6-(azeno)-12,16-(metheno)-1,5,11,13-benzodioxadiazacyclooctadecin-8-yl]methyl}sulfonyl)ethanamine] | 1.2 ×10⁻⁶ cm/s | 7.6 ×10⁻⁶ cm/s | 6.5 | – | – |
